The values that follow come from ChEMBL document CHEMBL1126009, “Synthesis and biological activities of fatty acid conjugates of a cyclic lactam alpha-melanotropin” (1992).

Assay [1] concerns lizard. The assay can be described thus: […] activity in lizard skin (10e-9 M) bioassay, compared to the half-maximal effective dose of alpha-MSH (1.0); response is not prolonged (-). The class given is functional.
In assay [2] the test system is S91. As to the kind of experiment: […] potency was measured as the minimal effective dose required to elicit the response relative to alpha-MSH(1.0) by using melanoma tyrosinase bioassay; response is prolonged (+).range =10-100. In kind it is functional, Mus musculus.
The test system of assay [3] is S91. As to the kind of experiment: […] potency was measured as the minimal effective dose required to elicit the response relative to alpha-MSH(1.0) by using melanoma tyrosinase bioassay; response is somewhat prolonged (+/-). In kind it is functional, Mus musculus.
Assay [4] has as its system S91. As to the kind of experiment: […] potency was measured as the minimal effective dose required to elicit the response relative to alpha-MSH(1.0) by using melanoma tyrosinase bioassay; response is prolonged (+).range=10-100. In kind it is functional, Mus musculus.
For assay [5], the system named is lizard. As to the kind of experiment: […] activity in lizard skin (10e-9 M) bioassay, compared to the half-maximal effective dose of alpha-MSH (1.0); response is prolonged (+). The class given is functional.

For the compound `CC(=O)N[C@H]1CC(=O)NCCCC[C@@H](C(N)=O)NC(=O)[C@H](Cc2c[nH]c3ccccc23)NC(=O)[C@@H](CCCN=C(N)N)NC(=O)[C@@H](Cc2ccccc2)NC(=O)[C@@H](Cc2c[nH]cn2)NC1=O`, the Melanotropic activity in the assay with lizard [1] is 1.

Consider `CCCCCCCCCCCCCC(=O)N[C@H]1CC(=O)NCCCC[C@@H](C(N)=O)NC(=O)[C@H](Cc2c[nH]c3ccccc23)NC(=O)[C@H](CCCN=C(N)N)NC(=O)[C@@H](Cc2ccccc2)NC(=O)[C@H](Cc2c[nH]cn2)NC1=O`, for which the Melanotropic potency with S91 [2] was 100.

Turning to `NC(=O)[C@@H]1CCCCNC(=O)C[C@H](N)C(=O)N[C@H](Cc2c[nH]cn2)C(=O)N[C@H](Cc2ccccc2)C(=O)N[C@H](CCCN=C(N)N)C(=O)N[C@@H](Cc2c[nH]c3ccccc23)C(=O)N1`, the Melanotropic activity in the assay on lizard [1] was found to be 0.2. The compound `NC(=O)[C@@H]1CCCCNC(=O)C[C@H](N)C(=O)N[C@@H](Cc2c[nH]cn2)C(=O)N[C@H](Cc2ccccc2)C(=O)N[C@@H](CCCN=C(N)N)C(=O)N[C@@H](Cc2c[nH]c3ccccc23)C(=O)N1` gave a Melanotropic potency in the assay with S91 [3] of 1.

`CCCCCC(=O)N[C@H]1CC(=O)NCCCC[C@@H](C(N)=O)NC(=O)[C@H](Cc2c[nH]c3ccccc23)NC(=O)[C@H](CCCN=C(N)N)NC(=O)[C@@H](Cc2ccccc2)NC(=O)[C@H](Cc2c[nH]cn2)NC1=O` had a Melanotropic potency in the assay on S91 [4] of 100.

`CC(=O)N[C@H]1CC(=O)NCCCC[C@@H](C(N)=O)NC(=O)[C@H](Cc2c[nH]c3ccccc23)NC(=O)[C@H](CCCN=C(N)N)NC(=O)[C@@H](Cc2ccccc2)NC(=O)[C@H](Cc2c[nH]cn2)NC1=O` gave a Melanotropic potency in the assay with S91 [3] of 1. In the assay with lizard [5], `CCCCCC(=O)N[C@H]1CC(=O)NCCCC[C@@H](C(N)=O)NC(=O)[C@H](Cc2c[nH]c3ccccc23)NC(=O)[C@@H](CCCN=C(N)N)NC(=O)[C@H](Cc2ccccc2)NC(=O)[C@@H](Cc2c[nH]cn2)NC1=O` yielded a Melanotropic activity of 1.

On to `CCCCCCCCCC(=O)N[C@H]1CC(=O)NCCCC[C@@H](C(N)=O)NC(=O)[C@H](Cc2c[nH]c3ccccc23)NC(=O)[C@H](CCCN=C(N)N)NC(=O)[C@@H](Cc2ccccc2)NC(=O)[C@H](Cc2c[nH]cn2)NC1=O`, for which the Melanotropic potency in the assay on S91 [4] turned out to be 100. For the compound `CCCCCCCCCC(=O)NC1CC(=O)NCCCC[C@@H](C(N)=O)NC(=O)[C@H](Cc2c[nH]c3ccccc23)NC(=O)[C@@H](CCCN=C(N)N)NC(=O)[C@H](Cc2ccccc2)NC(=O)[C@@H](Cc2c[nH]cn2)NC1=O` (some centres not stated), in the assay on lizard [5], the Melanotropic activity amounted to 1. Turning to `CCCCCCCCCCCCCCCC(=O)N[C@H]1CC(=O)NCCCC[C@@H](C(N)=O)NC(=O)[C@H](Cc2c[nH]c3ccccc23)NC(=O)[C@H](CCCN=C(N)N)NC(=O)[C@@H](Cc2ccccc2)NC(=O)[C@H](Cc2c[nH]cn2)NC1=O`, the Melanotropic potency with S91 [4] came to 100.

Consider `CCCCCCCCCCCCCCCC(=O)NC1CC(=O)NCCCC[C@@H](C(N)=O)NC(=O)[C@H](Cc2c[nH]c3ccccc23)NC(=O)[C@@H](CCCN=C(N)N)NC(=O)[C@H](Cc2ccccc2)NC(=O)[C@@H](Cc2c[nH]cn2)NC1=O` (some centres not stated), for which the Melanotropic activity with lizard [5] is 0.01. In turn, `CCCCCCCCCCCCCC(=O)NC1CC(=O)NCCCC[C@@H](C(N)=O)NC(=O)[C@H](Cc2c[nH]c3ccccc23)NC(=O)[C@@H](CCCN=C(N)N)NC(=O)[C@H](Cc2ccccc2)NC(=O)[C@@H](Cc2c[nH]cn2)NC1=O` (some centres not stated) returned a Melanotropic activity in the assay with lizard [5] of 0.01.
